Laboratory results: the supplement of paper PMC10307832

Compound: COC1=CC=C(C=C1)CN2C=CC3=C2C=C(C=C3)C(=O)NO + C[C@]1(O)C[C@@H](c2nc(-c3ccc4ccc(-c5ccccc5)nc4c3)c3c(N)nccn32)C1 [Linsitinib] (partner 1 µM)
Assay: relative viability (nuclei count vs DMSO), 5 days (fraction); higher = more cells survive
Settings: first compound 0.08 µM
Summary of the method: (§1)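 Relative viability divides the nuclei count in treated wells by that in vehicle wells. Lung cancer cell lines were seeded in 1536-well plates, dosed by pin tool the next day, and fixed and stained after 5 days in one step with final 0.05% Triton X-100, 1% formaldehyde and 1 ug/ml Hoechst. Dosing was a single drug or a fixed anchor-drug dose plus five library-drug doses (not always all listed) in √10 steps, and values are medians of duplicate plates imaged at 4×.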

Q: How did the relative viability turn out when NCI-H2405 was run?
A: 0.66

Q: How did the relative viability turn out when SK-LU-1 was run?
A: 0.998

Q: Which relative viability does the source give for NCI-H1437 here?
A: 0.847

Q: For NCI-H596, which relative viability is on record?
A: 0.982

Q: For HCC-15, which relative viability is on record?
A: 0.802

Q: Which relative viability does the source give for NCI-H460 here?
A: 0.553

Q: EMC-BAC-2 was tested. Which relative viability did it give?
A: 0.686

Q: For IA-LM, which relative viability is on record?
A: 0.613

Q: Which relative viability does the source give for NCI-H2009 here?
A: 1.21

Q: How did the relative viability turn out when NCI-H1395 was run?
A: 0.773

Q: Which relative viability does the source give for NCI-H520 here?
A: 0.313

Q: With EKVX as the cell line, how does the relative viability read?
A: 0.825

Q: NCI-H1299 was tested. Which relative viability did it give?
A: 0.952

Q: EPLC-272H was tested. Which relative viability did it give?
A: 0.987

Q: Which relative viability does the source give for PC-14 here?
A: 0.894

Q: For LXF-289, which relative viability is on record?
A: 0.456

Q: How did the relative viability turn out when LCLC-103H was run?
A: 1.03

Q: Which relative viability does the source give for NCI-H1793 here?
A: 0.934

Q: With NCI-H441 as the cell line, how does the relative viability read?
A: 0.304

Same assay, conditions: first compound 0.253 µM

Q: How did the relative viability turn out when LU99A was run?
A: 0.581

Q: Which relative viability does the source give for NCI-H1975 here?
A: 1.07

Q: With H3255 as the cell line, how does the relative viability read?
A: 1.01

Q: Which relative viability does the source give for NCI-H2023 here?
A: 0.645

Q: How did the relative viability turn out when NCI-H2405 was run?
A: 0.932

Q: SK-LU-1 was tested. Which relative viability did it give?
A: 1.3

Q: With NCI-H1734 as the cell line, how does the relative viability read?
A: 0.953

Q: NCI-H1437 was tested. Which relative viability did it give?
A: 1.1

Q: Which relative viability does the source give for ABC-1 here?
A: 0.924

Q: With NCI-H596 as the cell line, how does the relative viability read?
A: 1.08

Q: For HCC-15, which relative viability is on record?
A: 0.877

Q: How did the relative viability turn out when NCI-H460 was run?
A: 0.879

Q: EMC-BAC-2 was tested. Which relative viability did it give?
A: 0.867

Q: IA-LM was tested. Which relative viability did it give?
A: 0.587

Q: For NCI-H2009, which relative viability is on record?
A: 1.17

Q: How did the relative viability turn out when COR-L 105 was run?
A: 0.945

Q: NCI-H1395 was tested. Which relative viability did it give?
A: 1.28

Q: Which relative viability does the source give for NCI-H520 here?
A: 1.04

Q: How did the relative viability turn out when NCI-H358 was run?
A: 0.903

Q: Which relative viability does the source give for HCC-78 here?
A: 0.542

Q: How did the relative viability turn out when EKVX was run?
A: 1.07

Q: Which relative viability does the source give for EBC-1 here?
A: 0.883

Q: NCI-H1299 was tested. Which relative viability did it give?
A: 0.976

Q: With EPLC-272H as the cell line, how does the relative viability read?
A: 1.18

Q: Which relative viability does the source give for LK-2 here?
A: 0.45

Q: With PC-14 as the cell line, how does the relative viability read?
A: 0.959

Q: How did the relative viability turn out when LXF-289 was run?
A: 0.951

Q: A549 was tested. Which relative viability did it give?
A: 0.678

Q: For LCLC-103H, which relative viability is on record?
A: 1.13

Q: For NCI-H1793, which relative viability is on record?
A: 0.941

Q: For NCI-H1703, which relative viability is on record?
A: 0.783

Q: Calu-6 was tested. Which relative viability did it give?
A: 0.961

Q: How did the relative viability turn out when NCI-H441 was run?
A: 0.676

Same assay, conditions: first compound 0.8 µM

Q: LU99A was tested. Which relative viability did it give?
A: 0.533

Q: For NCI-H1975, which relative viability is on record?
A: 0.956

Q: H3255 was tested. Which relative viability did it give?
A: 0.943

Q: How did the relative viability turn out when NCI-H2023 was run?
A: 0.64

Q: NCI-H2405 was tested. Which relative viability did it give?
A: 0.915

Q: For SK-LU-1, which relative viability is on record?
A: 1.08

Q: Which relative viability does the source give for NCI-H1734 here?
A: 0.871

Q: With NCI-H1437 as the cell line, how does the relative viability read?
A: 1.01

Q: Which relative viability does the source give for ABC-1 here?
A: 0.789

Q: For NCI-H596, which relative viability is on record?
A: 1.01

Q: With HCC-15 as the cell line, how does the relative viability read?
A: 0.887

Q: For NCI-H460, which relative viability is on record?
A: 0.714

Q: Which relative viability does the source give for EMC-BAC-2 here?
A: 0.839

Q: Which relative viability does the source give for IA-LM here?
A: 0.492

Q: NCI-H2009 was tested. Which relative viability did it give?
A: 1.13

Q: COR-L 105 was tested. Which relative viability did it give?
A: 0.763

Q: Which relative viability does the source give for NCI-H1395 here?
A: 1.11

Q: For NCI-H520, which relative viability is on record?
A: 1.01

Q: For NCI-H358, which relative viability is on record?
A: 0.792

Q: Which relative viability does the source give for HCC-78 here?
A: 0.537

Q: Which relative viability does the source give for EKVX here?
A: 1.06

Q: For EBC-1, which relative viability is on record?
A: 0.941

Q: How did the relative viability turn out when NCI-H1299 was run?
A: 0.994

Q: EPLC-272H was tested. Which relative viability did it give?
A: 1.14

Q: For LK-2, which relative viability is on record?
A: 0.579

Q: With PC-14 as the cell line, how does the relative viability read?
A: 0.936

Q: With LXF-289 as the cell line, how does the relative viability read?
A: 0.998

Q: A549 was tested. Which relative viability did it give?
A: 0.595

Q: Which relative viability does the source give for LCLC-103H here?
A: 0.991

Q: With NCI-H1793 as the cell line, how does the relative viability read?
A: 1.09

Q: How did the relative viability turn out when NCI-H1703 was run?
A: 1.09

Q: How did the relative viability turn out when Calu-6 was run?
A: 0.949

Q: NCI-H441 was tested. Which relative viability did it give?
A: 0.573

Same assay, conditions: first compound 2.53 µM

Q: Which relative viability does the source give for LU99A here?
A: 0.552

Q: Which relative viability does the source give for NCI-H1975 here?
A: 0.931

Q: H3255 was tested. Which relative viability did it give?
A: 0.859

Q: With NCI-H2023 as the cell line, how does the relative viability read?
A: 0.7

Q: Which relative viability does the source give for NCI-H2405 here?
A: 0.915

Q: SK-LU-1 was tested. Which relative viability did it give?
A: 1.29

Q: For NCI-H1734, which relative viability is on record?
A: 0.93

Q: With NCI-H1437 as the cell line, how does the relative viability read?
A: 1

Q: For ABC-1, which relative viability is on record?
A: 0.732

Q: NCI-H596 was tested. Which relative viability did it give?
A: 0.915

Q: For HCC-15, which relative viability is on record?
A: 0.968

Q: NCI-H460 was tested. Which relative viability did it give?
A: 0.705

Q: How did the relative viability turn out when EMC-BAC-2 was run?
A: 0.814

Q: IA-LM was tested. Which relative viability did it give?
A: 0.698

Q: With NCI-H2009 as the cell line, how does the relative viability read?
A: 1.21

Q: For COR-L 105, which relative viability is on record?
A: 0.983

Q: NCI-H1395 was tested. Which relative viability did it give?
A: 1.08

Q: Which relative viability does the source give for NCI-H520 here?
A: 0.977

Q: How did the relative viability turn out when NCI-H358 was run?
A: 0.742

Q: How did the relative viability turn out when HCC-78 was run?
A: 0.491

Q: EKVX was tested. Which relative viability did it give?
A: 1.12

Q: For EBC-1, which relative viability is on record?
A: 0.907

Q: Which relative viability does the source give for NCI-H1299 here?
A: 0.977

Q: With EPLC-272H as the cell line, how does the relative viability read?
A: 1.14

Q: How did the relative viability turn out when LK-2 was run?
A: 0.515

Q: How did the relative viability turn out when PC-14 was run?
A: 1.04

Q: How did the relative viability turn out when LXF-289 was run?
A: 0.986

Q: How did the relative viability turn out when A549 was run?
A: 0.697

Q: Which relative viability does the source give for LCLC-103H here?
A: 1.07

Q: For NCI-H1793, which relative viability is on record?
A: 0.976

Q: For NCI-H1703, which relative viability is on record?
A: 0.69

Q: With Calu-6 as the cell line, how does the relative viability read?
A: 0.906

Q: Which relative viability does the source give for NCI-H441 here?
A: 0.579

Same assay, conditions: first compound 8 µM

Q: How did the relative viability turn out when LU99A was run?
A: 0.569

Q: NCI-H1975 was tested. Which relative viability did it give?
A: 0.863

Q: Which relative viability does the source give for H3255 here?
A: 0.835

Q: How did the relative viability turn out when NCI-H2023 was run?
A: 0.637

Q: For NCI-H2405, which relative viability is on record?
A: 0.794

Q: With SK-LU-1 as the cell line, how does the relative viability read?
A: 0.888

Q: Which relative viability does the source give for NCI-H1734 here?
A: 0.855

Q: NCI-H1437 was tested. Which relative viability did it give?
A: 1.13

Q: ABC-1 was tested. Which relative viability did it give?
A: 0.885

Q: Which relative viability does the source give for NCI-H596 here?
A: 0.992

Q: HCC-15 was tested. Which relative viability did it give?
A: 0.915

Q: For NCI-H460, which relative viability is on record?
A: 0.776

Q: Which relative viability does the source give for EMC-BAC-2 here?
A: 0.839

Q: With IA-LM as the cell line, how does the relative viability read?
A: 0.663

Q: How did the relative viability turn out when NCI-H2009 was run?
A: 1.19

Q: With COR-L 105 as the cell line, how does the relative viability read?
A: 0.765

Q: For NCI-H1395, which relative viability is on record?
A: 0.918

Q: Which relative viability does the source give for NCI-H520 here?
A: 0.946

Q: With NCI-H358 as the cell line, how does the relative viability read?
A: 0.851

Q: With HCC-78 as the cell line, how does the relative viability read?
A: 0.453

Q: How did the relative viability turn out when EKVX was run?
A: 1.03

Q: For EBC-1, which relative viability is on record?
A: 0.768

Q: NCI-H1299 was tested. Which relative viability did it give?
A: 0.959

Q: How did the relative viability turn out when EPLC-272H was run?
A: 1.05

Q: How did the relative viability turn out when LK-2 was run?
A: 0.533

Q: Which relative viability does the source give for PC-14 here?
A: 0.944

Q: For LXF-289, which relative viability is on record?
A: 0.959

Q: A549 was tested. Which relative viability did it give?
A: 0.558

Q: LCLC-103H was tested. Which relative viability did it give?
A: 1.02

Q: Which relative viability does the source give for NCI-H1793 here?
A: 0.86

Q: How did the relative viability turn out when NCI-H1703 was run?
A: 1.16

Q: How did the relative viability turn out when Calu-6 was run?
A: 0.902

Q: How did the relative viability turn out when NCI-H441 was run?
A: 0.42

Compound: C[C@]1(c2nc3c(C(N)=O)cccc3[nH]2)CCCN1 [Veliparib] + COc1cccc2cc(-c3nc([C@H]4CC[C@H](C(=O)O)CC4)n4ncnc(N)c34)[nH]c12 [OSI-027] (partner 0.5 µM)
Assay: as above
Settings: first compound 0.02 µM
Summary of the method: as §1

Q: NCI-H2342 was tested. Which relative viability did it give?
A: 0.586

Q: NCI-H1623 was tested. Which relative viability did it give?
A: 0.384

Q: How did the relative viability turn out when LU99A was run?
A: 0.297

Q: Which relative viability does the source give for NCI-H1975 here?
A: 0.715

Q: Which relative viability does the source give for H3255 here?
A: 0.674

Q: With NCI-H2023 as the cell line, how does the relative viability read?
A: 0.339

Q: With NCI-H2405 as the cell line, how does the relative viability read?
A: 0.547

Q: How did the relative viability turn out when SK-LU-1 was run?
A: 0.388

Q: For NCI-H1734, which relative viability is on record?
A: 0.44
